Legend:
[1] = system: LPS-stimulated macrophages; assay: TNF-alpha production by LPS-stimulated macrophages (ELISA); assay type: cell-based, ICR mice; settings: astaxanthin alone, FIG. 3
Description: (§1) 100 U/ml penicillin. […] streptomycin (Beit-Haemek, Israel).
Concentrations of TNF-alpha in cell culture supernatants were quantified by ELISA kits (Biolegend, SanDiego, Calif., USA).
(§2) The anti-inflammatory effect was detected by inhibition of NO production and of TNF alpha production by LPS-stimulated macrophages.

[2] = system: LPS-stimulated macrophages; assay: NO production by LPS-stimulated macrophages; assay type: cell-based, ICR mice; settings: astaxanthin alone, FIG. 1
Description: as §1, §2
NO levels in supernatants of cell cultures were determined by assaying nitrite levels using Griess reagent and sodium nitrite as a standard.

For `CC1=C(/C=C/C(C)=C/C=C/C(C)=C/C=C/C=C(C)/C=C/C=C(C)/C=C/C2=C(C)C(=O)[C@@H](O)CC2(C)C)C(C)(C)C[C@H](O)C1=O` [astaxanthin], the “inhibition of TNF alpha production” value [1] was “in a dose dependent manner” and the “inhibition of NO production” value [2] was “in a dose dependent manner”.

Reference: US10245239B2, “Astaxanthin anti-inflammatory synergistic combinations” (Lycored Ltd., priority 2013, dated 2019)
